From the NIST ThermoML archive (doi:10.1007/s10765-006-0047-0)
± gives the expanded uncertainty stated by the source.

Columns and labels:
[1] = 298.15 K, 101.33 kPa, Liquid; for mass density: Pycnometric method; for speed of sound: Sing-around technique in a fixed-path interferometer
[2] = xn = mol fraction of the nth substance listed; conditions: 298.15 K, 101 kPa, Liquid, Sing-around technique in a fixed-path interferometer

COCCOCCO [2-(2-methoxyethoxy)ethanol]
[1]
Conditions	mass density [kg/m3]	speed of sound [m/s]
–	1016.43 ± 1.6	1417.2 ± 2.1

COCCOCCO [2-(2-methoxyethoxy)ethanol] + CCCN
[2]
Conditions	speed of sound [m/s]
x1 = 0.0055	1215.3 ± 2.1
x1 = 0.0112	1217 ± 2.1
x1 = 0.024	1220.2 ± 2.1
x1 = 0.0454	1225.5 ± 2.1
x1 = 0.0749	1233.3 ± 2.1
x1 = 0.0948	1238.6 ± 2.1
x1 = 0.1292	1249.1 ± 2.1
x1 = 0.1834	1264.6 ± 2.1
x1 = 0.2523	1284.5 ± 2.1
x1 = 0.309	1301.5 ± 2.1
x1 = 0.3831	1320.8 ± 2.1
x1 = 0.4484	1337 ± 2.1
x1 = 0.5041	1349.4 ± 2.1
x1 = 0.5603	1360.6 ± 2.1
x1 = 0.6353	1373.2 ± 2.1
x1 = 0.6792	1380 ± 2.1
x1 = 0.7209	1385.9 ± 2.1
x1 = 0.7775	1392.7 ± 2.1
x1 = 0.8121	1397.5 ± 2.1
x1 = 0.8725	1404.9 ± 2.1
x1 = 0.912	1408.8 ± 2.1
x1 = 0.9332	1411.2 ± 2.1
x1 = 0.9535	1413.1 ± 2.1
x1 = 0.9852	1416.5 ± 2.1
x1 = 0.9983	1417.1 ± 2.1

COCCOCCOCCO [2-[2-(2-methoxyethoxy)ethoxy]ethanol]
[1]
Conditions	mass density [kg/m3]	speed of sound [m/s]
–	1043.06 ± 1.7	1459 ± 2.1

COCCOCCOCCO [2-[2-(2-methoxyethoxy)ethoxy]ethanol] + CCCN
[2]
Conditions	speed of sound [m/s]
x1 = 0.0039	1216.1 ± 2.1
x1 = 0.0134	1219.9 ± 2.1
x1 = 0.0327	1226.9 ± 2.1
x1 = 0.0519	1234.2 ± 2.1
x1 = 0.0799	1245.4 ± 2.1
x1 = 0.108	1258 ± 2.1
x1 = 0.1484	1274.9 ± 2.1
x1 = 0.2102	1299.7 ± 2.1
x1 = 0.2743	1324.5 ± 2.1
x1 = 0.341	1347.6 ± 2.1
x1 = 0.3879	1361.8 ± 2.1
x1 = 0.4351	1375 ± 2.1
x1 = 0.5433	1398.7 ± 2.1
x1 = 0.5904	1407.5 ± 2.1
x1 = 0.6475	1416 ± 2.1
x1 = 0.6873	1422.1 ± 2.1
x1 = 0.7353	1429.5 ± 2.1
x1 = 0.7806	1434.9 ± 2.1
x1 = 0.8226	1441.1 ± 2.1
x1 = 0.8873	1448.3 ± 2.1
x1 = 0.9295	1452.6 ± 2.1
x1 = 0.9565	1456.2 ± 2.1
x1 = 0.9751	1457 ± 2.1
x1 = 0.9898	1458.5 ± 2.1
x1 = 0.9973	1458.7 ± 2.1

COCCO [2-methoxyethan-1-ol]
[1]
Conditions	mass density [kg/m3]	speed of sound [m/s]
–	960.32 ± 1.5	1343.3 ± 2.1

CCCCOCCOCCO [3,6-dioxa-1-decanol]
[1]
Conditions	mass density [kg/m3]	speed of sound [m/s]
–	947.98 ± 1.5	1358.9 ± 2.1

CCCCOCCOCCO [3,6-dioxa-1-decanol] + CCCN
[2]
Conditions	speed of sound [m/s]
x1 = 0.0052	1215.5 ± 2.1
x1 = 0.0133	1218.1 ± 2.1
x1 = 0.0295	1223 ± 2.1
x1 = 0.0505	1228.7 ± 2.1
x1 = 0.0779	1236.9 ± 2.1
x1 = 0.1487	1256.7 ± 2.1
x1 = 0.2053	1272.3 ± 2.1
x1 = 0.2645	1286.7 ± 2.1
x1 = 0.318	1298.6 ± 2.1
x1 = 0.378	1310.2 ± 2.1
x1 = 0.4304	1319.4 ± 2.1
x1 = 0.4767	1326 ± 2.1
x1 = 0.5226	1331.6 ± 2.1
x1 = 0.5715	1336.8 ± 2.1
x1 = 0.6306	1342.1 ± 2.1
x1 = 0.6855	1346.2 ± 2.1
x1 = 0.7347	1349.4 ± 2.1
x1 = 0.7728	1351.3 ± 2.1
x1 = 0.8152	1353.3 ± 2.1
x1 = 0.87	1355.9 ± 2.1
x1 = 0.9073	1356.7 ± 2.1
x1 = 0.9289	1357.7 ± 2.1
x1 = 0.9504	1358.3 ± 2.1
x1 = 0.9663	1358.5 ± 2.1
x1 = 0.9813	1358.7 ± 2.1

CCOCCOCCO [3,6-dioxa-1-octanol]
[1]
Conditions	mass density [kg/m3]	speed of sound [m/s]
–	983.84 ± 1.6	1377.3 ± 2.1

CCOCCOCCO [3,6-dioxa-1-octanol] + CCCN
[2]
Conditions	speed of sound [m/s]
x1 = 0.0021	1215.3 ± 2.1
x1 = 0.0048	1215.4 ± 2.1
x1 = 0.0177	1218.7 ± 2.1
x1 = 0.0374	1223.3 ± 2.1
x1 = 0.0647	1230.5 ± 2.1
x1 = 0.0909	1236.8 ± 2.1
x1 = 0.1313	1247.7 ± 2.1
x1 = 0.1669	1257.2 ± 2.1
x1 = 0.2491	1278.4 ± 2.1
x1 = 0.3135	1293.9 ± 2.1
x1 = 0.3898	1310.7 ± 2.1
x1 = 0.4519	1322.7 ± 2.1
x1 = 0.4879	1329.1 ± 2.1
x1 = 0.5348	1337.5 ± 2.1
x1 = 0.5888	1344.5 ± 2.1
x1 = 0.6314	1349.7 ± 2.1
x1 = 0.6808	1355.5 ± 2.1
x1 = 0.7314	1359.9 ± 2.1
x1 = 0.7778	1363.7 ± 2.1
x1 = 0.8381	1367.3 ± 2.1
x1 = 0.876	1370 ± 2.1
x1 = 0.9121	1371.4 ± 2.1
x1 = 0.9343	1373.1 ± 2.1
x1 = 0.9624	1374.6 ± 2.1
x1 = 0.9887	1375.9 ± 2.1
x1 = 0.9971	1376.8 ± 2.1

CCCCOCCOCCOCCCC [5,8,11-trioxapentadecane]
[1]
Conditions	mass density [kg/m3]	speed of sound [m/s]
–	878.55 ± 1.3	1270.1 ± 2.1

CCCCOCCOCCOCCCC [5,8,11-trioxapentadecane] + CCCN
[2]
Conditions	speed of sound [m/s]
x1 = 0.0033	1215.3 ± 2.1
x1 = 0.0114	1215.5 ± 2.1
x1 = 0.033	1217.3 ± 2.1
x1 = 0.0476	1218.4 ± 2.1
x1 = 0.0724	1221 ± 2.1
x1 = 0.0955	1222.8 ± 2.1
x1 = 0.139	1227.3 ± 2.1
x1 = 0.1781	1231.7 ± 2.1
x1 = 0.2413	1237.2 ± 2.1
x1 = 0.3004	1242 ± 2.1
x1 = 0.3569	1245.8 ± 2.1
x1 = 0.4169	1249.5 ± 2.1
x1 = 0.4689	1251.9 ± 2.1
x1 = 0.5355	1255.2 ± 2.1
x1 = 0.5925	1258.2 ± 2.1
x1 = 0.6493	1260.8 ± 2.1
x1 = 0.6979	1262.9 ± 2.1
x1 = 0.7548	1264.7 ± 2.1
x1 = 0.8153	1266.6 ± 2.1
x1 = 0.8686	1268.2 ± 2.1
x1 = 0.9	1269 ± 2.1
x1 = 0.9241	1269.5 ± 2.1
x1 = 0.9526	1269.9 ± 2.1
x1 = 0.977	1270.1 ± 2.1
x1 = 0.991	1270.3 ± 2.1

CCOCCOCCOCC [diethylene glycol diethyl ether]
[1]
Conditions	mass density [kg/m3]	speed of sound [m/s]
–	902.76 ± 1.4	1241.9 ± 2.1

CCOCCOCCOCC [diethylene glycol diethyl ether] + CCCN
[2]
Conditions	speed of sound [m/s]
x1 = 0.0035	1214.7 ± 2.1
x1 = 0.0108	1214.5 ± 2.1
x1 = 0.025	1214 ± 2.1
x1 = 0.0591	1214.1 ± 2.1
x1 = 0.0865	1214.7 ± 2.1
x1 = 0.1134	1215.2 ± 2.1
x1 = 0.1662	1217.3 ± 2.1
x1 = 0.2091	1218.8 ± 2.1
x1 = 0.2738	1221.4 ± 2.1
x1 = 0.3214	1223.8 ± 2.1
x1 = 0.3658	1225.7 ± 2.1
x1 = 0.3939	1227 ± 2.1
x1 = 0.4846	1230.5 ± 2.1
x1 = 0.5313	1232.3 ± 2.1
x1 = 0.5713	1233.8 ± 2.1
x1 = 0.6319	1235.6 ± 2.1
x1 = 0.6754	1236.7 ± 2.1
x1 = 0.7192	1238.1 ± 2.1
x1 = 0.7754	1239.4 ± 2.1
x1 = 0.8066	1240.1 ± 2.1
x1 = 0.8729	1241.7 ± 2.1
x1 = 0.9037	1242.1 ± 2.1
x1 = 0.9238	1242.2 ± 2.1
x1 = 0.9448	1242.3 ± 2.1
x1 = 0.9638	1242.4 ± 2.1
x1 = 0.9835	1242.5 ± 2.1
x1 = 0.9916	1242.2 ± 2.1

CCCN [propan-1-amine]
[1]
Conditions	mass density [kg/m3]	speed of sound [m/s]
–	712.25 ± 0.95	1215.2 ± 2.1

CCCN [propan-1-amine] + COCCO
[2]
Conditions	speed of sound [m/s]
x2 = 0.0036	1215.3 ± 2.1
x2 = 0.0101	1216.4 ± 2.1
x2 = 0.0272	1218.3 ± 2.1
x2 = 0.047	1221.7 ± 2.1
x2 = 0.0831	1227.4 ± 2.1
x2 = 0.1175	1232.5 ± 2.1
x2 = 0.1521	1238.8 ± 2.1
x2 = 0.1977	1247 ± 2.1
x2 = 0.2378	1254 ± 2.1
x2 = 0.2982	1265.6 ± 2.1
x2 = 0.3629	1276.6 ± 2.1
x2 = 0.4188	1285.8 ± 2.1
x2 = 0.474	1294.1 ± 2.1
x2 = 0.5181	1299.6 ± 2.1
x2 = 0.5862	1307.8 ± 2.1
x2 = 0.6459	1314.6 ± 2.1
x2 = 0.7102	1321.5 ± 2.1
x2 = 0.799	1329.7 ± 2.1
x2 = 0.8253	1331.6 ± 2.1
x2 = 0.8642	1334.2 ± 2.1
x2 = 0.8918	1336.2 ± 2.1
x2 = 0.908	1338 ± 2.1
x2 = 0.9316	1339.5 ± 2.1
x2 = 0.9621	1341.5 ± 2.1
x2 = 0.9824	1342.9 ± 2.1
x2 = 0.9932	1343.4 ± 2.1
x2 = 0.9989	1343.5 ± 2.1
